# From ChEMBL document CHEMBL1125767, “New 5H-pyridazino[4,5-b]indole derivatives. Synthesis and studies as inhibitors of blood platelet aggregation and inotropics” (J Med Chem, 1991)
# Experiments:
# Cavia porcellus [1] = species: Cavia porcellus; test: Inhibition of ADP-induced platelet aggregation in guinea pig whole blood at 10e-4 M; type: functional
# Cavia porcellus [2] = species: Cavia porcellus; test: (§1) Inhibition of ADP-induced platelet aggregation in guinea pig whole blood at 5*10e-4 M; type: functional
# Cavia porcellus [3] = species: Cavia porcellus; test: Inhibition of arachidonic acid induced platelet aggregation in guinea pig whole blood at 10e-4 M; type: functional
# Cavia porcellus [4] = species: Cavia porcellus; test: Inhibition of arachidonic acid induced platelet aggregation in guinea pig whole blood at 10e-5 M; type: functional
# Cavia porcellus [5] = species: Cavia porcellus; test: Inhibition of arachidonic acid induced platelet aggregation in guinea pig whole blood at 10e-6 M; type: functional
# Cavia porcellus [6] = species: Cavia porcellus; test: (§2) Inhibition of arachidonic acid induced platelet aggregation in guinea pig whole blood at 5*10e-4 M; type: functional
# Cavia porcellus [7] = species: Cavia porcellus; test: Inhibition of arachidonic acid induced platelet aggregation in guinea pig whole blood at 5*10e-5 M; type: functional
# Cavia porcellus [8] = species: Cavia porcellus; test: Inhibition of arachidonic acid induced platelet aggregation in guinea pig whole blood at 5*10e-6 M; type: functional
# Homo sapiens [9] = species: Homo sapiens; test: Inhibition of arachidonic acid induced platelet aggregation in human platelet rich plasma at 10e-5 M; type: functional
# Homo sapiens [10] = species: Homo sapiens; test: Inhibition of adrenaline induced platelet aggregation in human platelet rich plasma at 10e-5 M; type: functional
# Homo sapiens [11] = species: Homo sapiens; test: Inhibition of collagen induced platelet aggregation in human platelet rich plasma at 10e-5 M; type: functional
# Homo sapiens [12] = species: Homo sapiens; test: Inhibition of ADP-induced platelet aggregation in human platelet rich plasma at 10e-5 M; type: functional
# [13] = In vitro inhibitory activity against prostaglandin E2 in platelet aggregation induced by arachidonic acid at 10e-4 M concentration.; type: functional
# [14] = In vitro inhibitory activity against prostaglandin E2 in platelet aggregation induced by arachidonic acid at 5*10e-4 M concentration.; type: functional
# [15] = In vitro inhibitory activity against prostaglandin E2 in platelet aggregation induced by arachidonic acid at 5*10e-5 M concentration.; type: functional
# [16] = test system: PDE4 (Canis lupus familiaris); test: Inhibition of canine heart Phosphodiesterase 4 at 100 uM
# [17] = molecular target: T1, Thromboxane-A synthase (Homo sapiens) (UniProt P24557); test: In vitro inhibitory activity against prostaglandin E2 in platelet aggregation induced by arachidonic acid at 10e-4 M concentration; (Change from basal value); type: functional
# T1 sequence (whole entry): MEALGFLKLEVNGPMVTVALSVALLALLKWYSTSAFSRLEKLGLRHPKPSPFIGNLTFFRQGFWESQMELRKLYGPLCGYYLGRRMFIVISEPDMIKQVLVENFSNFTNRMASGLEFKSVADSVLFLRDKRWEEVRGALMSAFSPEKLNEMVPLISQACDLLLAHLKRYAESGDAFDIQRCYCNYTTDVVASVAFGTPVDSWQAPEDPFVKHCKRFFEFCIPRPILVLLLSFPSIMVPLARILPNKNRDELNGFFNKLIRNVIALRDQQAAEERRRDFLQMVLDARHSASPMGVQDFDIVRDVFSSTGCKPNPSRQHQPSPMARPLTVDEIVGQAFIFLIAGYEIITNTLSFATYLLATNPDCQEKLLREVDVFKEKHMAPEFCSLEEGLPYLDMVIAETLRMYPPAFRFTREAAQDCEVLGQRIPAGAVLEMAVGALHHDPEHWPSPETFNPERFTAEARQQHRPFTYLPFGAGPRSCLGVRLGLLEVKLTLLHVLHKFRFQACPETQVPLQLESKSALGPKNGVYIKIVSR
# [18] = molecular target: T1, Thromboxane-A synthase (Homo sapiens); test: In vitro inhibitory activity against prostaglandin E2 in platelet aggregation induced by arachidonic acid at 5*10e-4 M concentration; (Change from basal value); type: functional
# [19] = molecular target: T1, Thromboxane-A synthase (Homo sapiens); test: In vitro inhibitory activity against thromboxane B2 synthetase in platelet aggregation induced by arachidonic acid at 10e-4 M concentration; (Change from basal value); type: functional
# [20] = molecular target: T1, Thromboxane-A synthase (Homo sapiens); test: In vitro inhibitory activity against thromboxane B2 synthetase in platelet aggregation induced by arachidonic acid at 5*10e-4 M concentration; (Change from basal value); type: functional
# [21] = test system: PDE4 (Canis lupus familiaris); test: Inhibition of canine heart Phosphodiesterase 4 at 50 uM
# Homo sapiens [22] = species: Homo sapiens; test: nhibition of ADP-induced platelet aggregation in human platelet rich plasma at 5*10e-5 M; type: functional
# Homo sapiens [23] = species: Homo sapiens; test: Inhibition of arachidonic acid induced platelet aggregation in human platelet rich plasma at 5*10e-5 M; type: functional
# Homo sapiens [24] = species: Homo sapiens; test: Inhibition of adrenaline induced platelet aggregation in human platelet rich plasma at 5*10e-5 M; type: functional
# Homo sapiens [25] = species: Homo sapiens; test: Inhibition of collagen induced platelet aggregation in human platelet rich plasma at 5*10e-5 M; type: functional
# [26] = molecular target: PDE4 (Canis lupus familiaris); test: Inhibition of canine heart phosphodiesterase 4
# Cavia porcellus [27] = species: Cavia porcellus; test: Inhibition of arachidonic acid induced platelet aggregation in guinea pig whole blood at 5*10e-4 M (not determined); type: functional
# Cavia porcellus [28] = species: Cavia porcellus; test: Inhibition of ADP-induced platelet aggregation in guinea pig whole blood at 5*10e-3 M; type: functional
# Cavia porcellus [29] = species: Cavia porcellus; test: Inhibition of arachidonic acid induced platelet aggregation in guinea pig whole blood at 5*10e-3 M; type: functional
# Homo sapiens [30] = species: Homo sapiens; test: Inhibition of arachidinoc acid induced platelet in human platelet rich plasma at 10e-5 M; type: functional
# [31] = as §1; type: functional, Cavia porcellus
# [32] = as §2; type: functional, Cavia porcellus
# [33] = molecular target: T1, Thromboxane-A synthase (Homo sapiens); test: In vitro inhibitory activity against prostaglandin E2 in platelet aggregation induced by arachidonic acid at 5*10e-3 M concentration; (Change from basal value); type: functional
# [34] = molecular target: T1, Thromboxane-A synthase (Homo sapiens); test: In vitro inhibitory activity against thromboxane B2 synthetase in platelet aggregation induced by arachidonic acid at 5*10e-3 M concentration; (Change from basal value); type: functional
# Cavia porcellus [35] = species: Cavia porcellus; test: Inhibition of ADP-induced platelet aggregation in guinea pig whole blood at 5*10e-5 M; type: functional
# Homo sapiens [36] = species: Homo sapiens; test: Inhibition of adrenaline induced platelet aggregation in human platelet rich plasma at 7.5*10e-5 M; type: functional
# Homo sapiens [37] = species: Homo sapiens; test: Inhibition of collagen induced platelet aggregation in human platelet rich plasma at 7.5*10e-5 M; type: functional
# Homo sapiens [38] = species: Homo sapiens; test: Inhibition of ADP-induced platelet aggregation in human platelet rich plasma at 5*10e-5 M; type: functional
# Homo sapiens [39] = species: Homo sapiens; test: Inhibition of ADP-induced platelet aggregation in human platelet rich plasma at 7.5*10e-5 M; type: functional
# Homo sapiens [40] = species: Homo sapiens; test: Inhibition of arachidinoc acid induced platelet in human platelet rich plasma at 5*10e-5 M; type: functional
# Homo sapiens [41] = species: Homo sapiens; test: Inhibition of arachidinoc acid induced platelet in human platelet rich plasma at 7.5*10e-5 M.; type: functional
structure (smiles),measurement,setting,value
Cc1cc(C)n(-c2[nH]nc(N3CCCCC3)c3c4ccccc4nc2-3)n1,inhibition at 100 µM,Cavia porcellus [1],0%
same,Inhibition,Cavia porcellus [2],64.83%
same,inhibition at 100 µM,Cavia porcellus [3],99.4%
same,inhibition at 10 µM,Cavia porcellus [4],67.5%
same,inhibition at 1 µM,Cavia porcellus [5],0%
same,Inhibition,Cavia porcellus [6],100%
same,Inhibition,Cavia porcellus [7],99.5%
same,Inhibition,Cavia porcellus [8],26.38%
same,inhibition at 10 µM,Homo sapiens [9],83.8%
same,inhibition at 10 µM,Homo sapiens [10],42.5%
same,inhibition at 10 µM,Homo sapiens [11],0%
same,inhibition at 10 µM,Homo sapiens [12],23.9%
same,inhibition at 100 µM,[13],-91%
same,Inhibition,[14],-80.4%
same,Inhibition,[15],-100%
same,inhibition,[16],32.8%
NNC(=O)c1n[nH]c2c3nc4ccccc4c-3c(NN)nn12 [listing 1 of 3 here],inhibition at 100 µM,Cavia porcellus [1],8.25%
same,inhibition at 100 µM,Cavia porcellus [3],38.3%
COc1ccccc1N1CCN(c2n[nH]c(N3CCN(c4ccccc4OC)CC3)c3c4ccccc4nc2-3)CC1,inhibition at 100 µM,Cavia porcellus [1],0%
same,Inhibition,Cavia porcellus [2],64%
same,inhibition at 100 µM,Cavia porcellus [3],26.6%
same,Inhibition,Cavia porcellus [6],56.13%
same,inhibition,[16],7.52%
c1ccc2c(c1)[nH]c1c(-c3ncc[nH]3)nnc(-c3ncc[nH]3)c12,inhibition at 100 µM,Cavia porcellus [1],23.2%
same,Inhibition,Cavia porcellus [2],24.25%
same,inhibition at 100 µM,Cavia porcellus [3],100%
same,Inhibition,Cavia porcellus [6],98.88%
same,Prostaglandin E2 level,[17],518%
same,Prostaglandin E2 level,[18],119%
same,Thromboxane B2 level,[19],-61%
same,Thromboxane B2 level,[20],-31%
NNc1nncc2ccccc12 [HYDRALAZINE],Inhibition,Cavia porcellus [2],0%
same,Inhibition,Cavia porcellus [6],20%
CCOc1ccccc1N1CCN(c2[nH]nc(-n3nc(C)cc3C)c3nc4ccccc4c2-3)CC1,inhibition,[21],17.6%
Cc1cc(C)n(-c2[nH]nc(NN)c3c4ccccc4nc2-3)n1 [listing 1 of 2 here],inhibition,[16],9.39%
CNNc1[nH]nc(-n2nc(C)cc2C)c2nc3ccccc3c1-2,inhibition at 100 µM,Cavia porcellus [1],0%
same,Inhibition,Cavia porcellus [2],33.8%
same,Inhibition,Homo sapiens [22],0%
same,inhibition at 100 µM,Cavia porcellus [3],7.86%
same,Inhibition,Cavia porcellus [6],100%
same,Inhibition,Homo sapiens [23],0%
same,Inhibition,Homo sapiens [24],0%
same,Inhibition,Homo sapiens [25],0%
same,Inhibition,[14],-72.8%
same,IC50,[26],118 µM
same,inhibition,[16],44.8%
Nc1cc(-c2ccncc2)c[nH]c1=O [INAMRINONE],Inhibition,Cavia porcellus [2],49%
same,Inhibition,Cavia porcellus [6],100%
Cc1cc(C)n(-c2[nH]nc(N3CCOCC3)c3c4ccccc4nc2-3)n1,inhibition at 100 µM,Cavia porcellus [1],0%
same,Inhibition,Cavia porcellus [2],47.83%
same,inhibition at 100 µM,Cavia porcellus [3],99.4%
same,inhibition at 10 µM,Cavia porcellus [4],0%
same,Inhibition,Cavia porcellus [6],100%
same,Inhibition,Cavia porcellus [7],59.83%
same,inhibition at 10 µM,Homo sapiens [9],3.35%
same,inhibition at 10 µM,Homo sapiens [10],0%
same,inhibition at 10 µM,Homo sapiens [11],36.6%
same,inhibition at 10 µM,Homo sapiens [12],24.8%
same,inhibition at 100 µM,[13],-80%
same,Inhibition,[14],-78%
same,inhibition,[16],38%
Cc1cc(C)n(-c2[nH]nc(N3CCN(c4ccc(F)cc4)CC3)c3c4ccccc4nc2-3)n1,inhibition,[21],2.52%
NNC(=O)c1n[nH]c2c3nc4ccccc4c-3c(NN)nn12 [listing 2 of 3 here],inhibition,[16],55.9%
COc1ccccc1N1CCN(c2[nH]nc(-n3nc(C)cc3C)c3nc4ccccc4c2-3)CC1,inhibition,[21],11.9%
COc1ccc(N2CCN(c3[nH]nc(-n4nc(C)cc4C)c4nc5ccccc5c3-4)CC2)cc1,inhibition,[16],4.8%
NNC(=O)c1n[nH]c2c3nc4ccccc4c-3c(NN)nn12 [listing 3 of 3 here],IC50,[26],121 µM
CCOC(=O)c1n[nH]c2c3nc4ccccc4c-3c(Cl)nn12,Inhibition,Cavia porcellus [2],57.63%
same,Inhibition,Cavia porcellus [6],13.4%
same,inhibition,[16],37%
Cc1cc(C)n(-c2[nH]nc(NN)c3c4ccccc4nc2-3)n1 [listing 2 of 2 here],Inhibition,Cavia porcellus [2],67.83%
same,Inhibition,Cavia porcellus [27],92.14%
same,Inhibition,[14],96%
CC(=O)Oc1ccccc1C(=O)O [ASPIRIN],Inhibition,Cavia porcellus [28],15%
same,Inhibition,Cavia porcellus [29],30%
same,inhibition at 10 µM,Homo sapiens [10],38.3%
same,inhibition at 10 µM,Homo sapiens [11],52%
same,inhibition at 10 µM,Homo sapiens [12],20%
same,inhibition at 10 µM,Homo sapiens [30],90%
same,Inhibition,[31],100%
same,Inhibition,[32],100%
same,Prostaglandin E2 level,[33],-100%
same,Thromboxane B2 level,[34],-100%
Cc1cc(C)n(-c2n[nH]c(N3CCN(C)CC3)c3c4ccccc4nc2-3)n1,Inhibition,Cavia porcellus [2],89.25%
same,Inhibition,Cavia porcellus [6],78.25%
same,inhibition,[16],33.4%
Cc1cc(C)n(-c2[nH]nc(Cl)c3c4ccccc4nc2-3)n1,Inhibition,Cavia porcellus [2],31%
same,Inhibition,Cavia porcellus [6],46.17%
Cc1cc(C)n(-c2n[nH]c(-n3nc(C)cc3C)c3c4ccccc4nc2-3)n1,inhibition,[16],29.5%
Cc1cc(C)n(-c2[nH]nc(NN)c3c4ccccc4nc2-3)n1.Cl,inhibition at 100 µM,Cavia porcellus [1],23%
same,Inhibition,Cavia porcellus [2],90%
same,Inhibition,Cavia porcellus [35],0%
same,inhibition at 100 µM,Cavia porcellus [3],83%
same,Inhibition,Cavia porcellus [6],97%
same,Inhibition,Cavia porcellus [7],0%
same,Inhibition,Homo sapiens [36],22%
same,Inhibition,Homo sapiens [37],78.4%
same,Inhibition,Homo sapiens [38],22%
same,Inhibition,Homo sapiens [39],23%
same,Inhibition,Homo sapiens [40],4.8%
same,Inhibition,Homo sapiens [41],6.5%
same,Inhibition,Homo sapiens [24],0%
same,Inhibition,Homo sapiens [25],0%
same,Inhibition,[14],11.8%
same,IC50,[26],348 µM
